Measured values from publication PMC12256496, “An advancement in developmental and reproductive toxicity (DART) risk assessment: evaluation of a bioactivity and exposure-based NAM toolbox” (Frontiers in Toxicology, 2025).
“And” between values parts separate entries of the source, which are not always exact repeats. Equal entries are not always repeated. Where two headings read alike, the source gives them in different places. Blank lines part the entries; values can stand above or below the molecule they belong to.

Columns and labels:
[1] = Human in vivo PK data: concentration-dose ratio (CDR) and toxicokinetic variability factor (TKVF); set-up: 95% percentile (Conc-dose-ratio): unit not given here;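 note: Literature-pooled human in vivo PK data, plasma, serum or cord blood concentrations per daily dose, weighted by study population size across non-pregnant, pregnant and fetal groups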
[2] = Bioactivity exposure ratio (BER): minimum platform PoD / estimated Cmax; conditions: low-risk exposure scenario of the compound
[3] = test system: developmental or reproductive toxicity in animal or human; conditions: cited from earlier work
[4] = test system: human developmental and reproductive toxicity; conditions: cited from earlier work
rats = conditions: two developmental toxicity studies in the rat; ref Supplementary Data Sheet 1; cited from earlier work
[5] = cited from earlier work
[6] = renal clearance, Fup*GFR (PBK parameter); conditions: method Fup*GFR
[7] = Solubility pH 7; ref [7]; cited from earlier work
[8] = skin absorption / systemic exposure dose for dermal exposure (PBK parameter); assay type: in vitro ADME
From the text: Where a SED (systemic exposure dose) was reported systemic exposure from a dermal administration was modelled as a slow intravenous infusion of the SED, which corrects the applied dose for the rate of skin absorption (%). Where no SED was available dermal exposure route was predicted by the dermal module in GastroPlus® administration.

[9] = hepatic intrinsic clearance, CLint (PBK parameter); assay type: in vitro ADME
[10] = ref Supplementary Data Sheet 1; cited from earlier work
[11] = Non-Pregnant population (reference)
[12] = Non-Pregnant population, TKVF95 = p95 / weighted mean concentration-dose ratio
[13] = Pregnant population (reference)
[14] = Pregnant population, TKVF95 = p95 / weighted mean concentration-dose ratio
[15] = evidence of developmental or reproductive toxicity in animal or human, irrespective of exposure/dose, ref Supplementary Data Sheet 1
[16] = Foetus, oral, combined (tretinoin, retinyl palmitate, dietary retinoids)
[17] = Non-Pregnant, dermal, formulation radiolabelled tretinoin
[18] = Non-Pregnant, oral, combined (tretinoin, retinyl palmitate, dietary retinoids)
[19] = Pregnant, oral, combined (tretinoin, retinyl palmitate, dietary retinoids)

BER [2]: < 1
SMILES: C[C@H]1O[C@@H](O[C@H]2[C@@H](O)C[C@H](O[C@H]3[C@@H](O)C[C@H](O[C@H]4CC[C@@]5(C)[C@H](CC[C@@H]6[C@@H]5C[C@@H](O)[C@]5(C)[C@@H](C7=CC(=O)OC7)CC[C@]65O)C4)O[C@@H]3C)O[C@@H]2C)C[C@H](O)[C@@H]1O [Digoxin]
TKVF ([1]; female, human, in vivo): 2.35
TKVF ([1]; female, human, in vivo, po): 2.35

SMILES: C[C@@H]1CCO[C@H]2Cn3cc(C(=O)NCc4ccc(F)cc4F)c(=O)c(O)c3C(=O)N12 [Dolutegravir]
CDR fold difference to non-pregnant ([1]; Fetus population): 0.46
CDR fold difference to pregnant ([1]; Fetus population): 0.65
TKVF ([1]; Fetus population, TKVF95 = p95 / weighted mean concentration-dose ratio): 1.40
95% percentile (Conc-dose-ratio) ([1]; Foetus, oral): 0.11
Fold Difference to non-pregnant ([1]; Foetus, oral): 0.46
Fold Difference to pregnant ([1]; Foetus, oral): 0.65
Mean Conc-dose -ratio ([1]; Foetus, oral): 0.08 uM/(mg/day]
TKVF ([1]; Foetus, oral): 1.40
CDR fold difference to non-pregnant [1, 11]: 1.00
TKVF [1, 12]: 1.87
95% percentile (Conc-dose-ratio) ([1]; Non-Pregnant, oral): 0.33
Fold Difference to non-pregnant ([1]; Non-Pregnant, oral): 1.00
Mean Conc-dose -ratio ([1]; Non-Pregnant, oral): 0.18 uM/(mg/day]
TKVF ([1]; Non-Pregnant, oral): 1.87
CDR fold difference to non-pregnant ([1]; Pregnant population): 0.70
CDR fold difference to pregnant [1, 13]: 1.00
TKVF [1, 14]: 2.64
95% percentile (Conc-dose-ratio) ([1]; Pregnant, oral): 0.33
Fold Difference to non-pregnant ([1]; Pregnant, oral): 0.70
Fold Difference to pregnant ([1]; Pregnant, oral): 1.00
Mean Conc-dose -ratio ([1]; Pregnant, oral): 0.12 uM/(mg/day]
TKVF ([1]; Pregnant, oral): 2.64
DART Hazard Call [3, 15]: Toxic
Exposure risk (DART risk classification) ([4]; Pharmaceutical, 50 mg/daily, oral, ref Supplementary Data Sheet 1): High Risk

SMILES: O=CCCCC=O [Glutaraldehyde]
DART Hazard Call [3, 15]: Non Toxic
highest dose tested without evidence of developmental toxicity (rats): 50 mg/kg/day and 68 mg/kg/day
Chronic Dietary RfD ([5]; ref EPA): Chronic Dietary RfD set by EPA (0.16 mg/kg/day)
Renal Clearance [6]: 6.185 L/h
Exposure risk (DART risk classification) ([4]; Cosmetic, 0.1% in body lotion, dermal, ref Supplementary Data Sheet 1): Low Risk
Aqueous Solubility [7]: 167.2 mg/mL
Diffusivity Dermis ([8]; optimised based on [10]): 1.00E-07 cm^2/s
Diffusivity Stratum Corneum ([8]; optimised based on [10]): 1.00E-09 cm^2/s
Diffusivity Viable Epidermis ([8]; optimised based on [10]): 5.00E-08 cm^2/s
Partition Coefficient Stratum Corneum/Water ([8]; optimised based on [10]): 2.30
Partition Coefficient Viable Epidermis/Water ([8]; optimised based on [10]): 3.00

Intrinsic Liver Clearance [9]: 248.1 L/h
Renal Clearance [6]: 4.496 L/h
Diffusivity Dermis ([8]; optimised based on [11]): 1.00E-08 cm^2/s
Diffusivity Stratum Corneum ([8]; optimised based on [11]): 1.00E-08 cm^2/s
Diffusivity Vehicle ([8]; optimised based on [11]): 1.00E-05 cm^2/s
Partition Coefficient Stratum Corneum/Water ([8]; optimised based on [11]): 1.50
SMILES: Nc1ccc(NCCO)c([N+](=O)[O-])c1 [HC Red 3]
DART Hazard Call [3]: Non Toxic
Exposure risk (DART risk classification) [4]: Low Risk
NOAEL for maternal toxicity [10]: 200 mg/kg/day
Diffusivity Viable Epidermis ([8]; optimised based on [11]): 1.00E-10 cm^2/s

SMILES: CC(C)(CO)C(O)C(=O)NCCCO (centres unmarked) [Panthenol]
BER [2]: < 1
Renal Clearance [6]: 6.348 L/h
Diffusivity Stratum Corneum ([8]; optimised based on [12]): 2.29E-13 cm^2/s
Partition Coefficient Stratum Corneum/Water ([8]; optimised based on [12]): 1.96

SMILES: C[n+]1ccc(-c2cc[n+](C)cc2)cc1 [Paraquat]
CDR fold difference to non-pregnant ([1]; Fetus population): 0.06
CDR fold difference to pregnant ([1]; Fetus population): 1.15
Fold Difference to non-pregnant ([1]; Foetus, oral): 0.056
Fold Difference to pregnant ([1]; Foetus, oral): 1.15
Mean Conc-dose -ratio ([1]; Foetus, oral): 0.000247 uM/(mg/day]
CDR fold difference to non-pregnant [1, 11]: 1.00
TKVF [1, 12]: 3.16
95% percentile (Conc-dose-ratio) ([1]; Non-Pregnant, oral): 0.014
Fold Difference to non-pregnant ([1]; Non-Pregnant, oral): 1.00
Mean Conc-dose -ratio ([1]; Non-Pregnant, oral): 0.0044 uM/(mg/day]
TKVF ([1]; Non-Pregnant, oral): 3.16
CDR fold difference to non-pregnant ([1]; Pregnant population): 0.05
CDR fold difference to pregnant [1, 13]: 1.00
Fold Difference to non-pregnant ([1]; Pregnant, oral): 0.05
Fold Difference to pregnant ([1]; Pregnant, oral): 1.00
Mean Conc-dose -ratio ([1]; Pregnant, oral): 0.000214 uM/(mg/day]
DART Hazard Call [3, 15]: Non Toxic
ADI ([5]; ref FSCJ, EFSA, SCF, JMPR as named in the cell): ADI set by FSCJ (0.0045 mg/kg/day)

SMILES: O=C(O)c1ccccc1O [Salicylate]
TKVF [1, 12]: 1.96
TKVF ([1]; Non-Pregnant, dermal, formulation Sodium salicylate): 1.52
TKVF ([1]; Non-Pregnant, oral, formulation Acetyl salicylic acid): 1.96
TKVF ([1]; Non-Pregnant, oral, formulation Sodium salicylate): 1.06
TKVF [1, 14]: 2.34
TKVF ([1]; Pregnant, oral, formulation Acetyl salicylic acid): 2.34
MoS ([5]; existent consumer risk assessment for the cosmetic use scenario, ref SCCS / SCCP / SCCNFP): Used safely in cosmetic products. Existent consumer risk assessment from the SCCS. MoS >50

SMILES: Cn1c(=O)c2[nH]cnc2n(C)c1=O [Theophylline]
TKVF ([1]; female, human, in vivo): 1.73

SMILES: CC1=C(/C=C/C(C)=C/C=C/C(C)=C/C(=O)O)C(C)(C)CCC1 [all-tr-Retinoic Acid]
95% percentile (Conc-dose-ratio) [1, 16]: 0.00556
Fold Difference to non-pregnant [1, 16]: 0.55
Fold Difference to pregnant [1, 16]: 0.71
Mean Conc-dose -ratio [1, 16]: 0.005 uM/(mg/day]
TKVF [1, 16]: 1.06
95% percentile (Conc-dose-ratio) [1, 17]: 0.00249
Mean Conc-dose -ratio [1, 17]: 0.0015 uM/(mg/day]
TKVF [1, 17]: 1.66
95% percentile (Conc-dose-ratio) [1, 18]: 0.02
Fold Difference to non-pregnant [1, 18]: 1.00
Mean Conc-dose -ratio [1, 18]: 0.010 uM/(mg/day]
TKVF [1, 18]: 2.14
95% percentile (Conc-dose-ratio) [1, 19]: 0.0108
Fold Difference to non-pregnant [1, 19]: 0.77
Fold Difference to pregnant [1, 19]: 1.00
Mean Conc-dose -ratio [1, 19]: 0.007 uM/(mg/day]
TKVF [1, 19]: 1.47
